# Data published in US9226506B2, “Methods of weed control in chicory” (Dow AgroSciences LLC, priority 2013, dated 2016).
# Experiments:
# Assay in all cases: Field trial, post-emergence weed control in chicory
# Assay type in all cases: in vivo
# [1] = tested on: Sonchus sp. (sow-thistle), SONSS; conditions: 1 trial, 30 days after last application
# Protocol: (§1) Field trials were conducted in Northern France and Belgium, both of which are major areas for root chicory and whitloof chicory production. Trials were conducted in accordance with EPPO standard PP 1/99(3) entitled “Weeds in Roots Vegetables,” PP 1/152(4) entitled “Design and Analysis of Efficacy Evaluation Trials,” PP 1/135(3) entitled “Phytotoxic Assessment,” and PP 1/181(4) entitled “Conduct and Reporting of Efficacy Evaluation Trials Including Good Experimental Practice,” all of which are incorporated herein by reference in their entirety.
# (§2) Application to all field trials was made using a small plot precision sprayer operating at between 160-400 kilopascals (kPa) pressure, delivering a spray volume of 150-400 liters per hectare (L/ha). Nozzles were of a flat fan type. Trial plot size ranged from 4.5×2.5 square meters (m^2) to 10.5×2.5 m^2. Plots were replicated 3 or 4 times and were arranged in a randomized block design within each trial. All trials received a pre-emergence application of BONALAN® at 6 L/ha (benfluralin; 180 grams active ingredient per liter (g ai/L); commercially available from Dow AgroSciences LLC) with incorporation to prevent the emergence of grasses which could complicate the assessment of broadleaf control.
# (§3) In whitloof chicory (Cichorium intybus), treatments were evaluated which included either two or three post-emergence applications of herbicide. Multiple applications of herbicide were evaluated for their ability to control weed emergence during the extended period of time required for chicory cultivation. Trials included different combinations of application rate and application timing. Broadcast applications were made from May to July, covering a range of possible application timings. Penoxulam was applied at a maximum total rate of 15 g/ha per season, applied in two or three applications with a minimum of seven days between applications. Treatment with penoxsulam involved application of either BOA® or VIPER® (2.14% weight per weight (w/w) oil dispersions of penoxsulam commercially available from Dow AgroSciences LLC). Trials were also conducted using another ALS mode-of-action herbicide (i.e., the sulfonylurea triflusulfuron-methyl). Triflusulfuron-methyl was applied at a maximum total rate of 30 g/ha per season, applied in two or three applications with a minimum of seven days between applications. Treatment with triflusulfuron-methyl involved application of SAFARI® (triflusulfuron-methyl; commercially available from DuPont Crop Protection).
# (§4) Prior to treatment application, assessments of weed populations (number of plants per m^2) were carried out using a quadrant square and an appropriate number of sampling points.
# (§5) 1) Visual rating in percent of the overall volume reduction of vegetation for each species compared to the nearest untreated plot (Plant/Control/% visual; 0%=no control; 100%=all weeds dead). Assessments of this type were performed by Dow AgroSciences LLC in France.
# (§6) Assessments of weed control were carried out at 14, 28, 56 and 84 days or longer after each application timing (DAAA=days after application A, DAAB=days after application B or DAAC=days after application C).
# [2] = tested on: Galinsoga ciliata (shaggy soldier) / Galinsoga parviflora (potato weed), GASCI-GASPA; conditions: 4 trials, 30 days after last application
# Protocol: as §1, §2, §3, §4, §5, §6
# [3] = tested on: Artemisia biennis (biennial wormwood), ARTRI; conditions: 3 trials, 30 days after last application
# Protocol: as §1, §2, §3, §4, §5, §6
# [4] = tested on: Senecio vulgaris (common groundsel), SENVU; conditions: 1 trial, 30 days after last application
# Protocol: as §1, §2, §3, §4, §5, §6
# [5] = tested on: Matricaria recutita (wild chamomile), MATCH; conditions: 2-3 trials (number of trials in parentheses in cell), 30 days after last application
# Protocol: as §1, §2, §3, §4, §5, §6
# [6] = tested on: Solanum nigrum (black nightshade), SQLNI; conditions: 2 trials, 30 days after last application
# Protocol: as §1, §2, §3, §4, §5, §6
# [7] = tested on: Coronopus didymus (lesser swinecress), COPDI; conditions: 2 trials, 30 days after last application
# Protocol: as §1, §2, §3, §4, §5, §6
# [8] = tested on: Capsella bursa-pastoris (shepherd's purse), CAPBP; conditions: 2 trials, 30 days after last application
# Protocol: as §1, §2, §3, §4, §5, §6
# [9] = 3 applications 3.73/3.73/3.73 g ai/ha
compound,measurement,setting,value
COc1cnc(OC)n2nc(NS(=O)(=O)c3c(OCC(F)F)cccc3C(F)(F)F)nc12 [Penoxsulam],% Visual Weed Control,[1]; 2 applications 5.6/5.6 g ai/ha,86%
same,% Visual Weed Control,[1]; 2 applications 7.5/7.5 g ai/ha,86%
same,% Visual Weed Control,[1]; [9],86%
same,% Visual Weed Control,[1]; 3 applications 5/5/5 g ai/ha,86%
same,% Visual Weed Control,[2]; 2 applications 5.6/5.6 g ai/ha,87.3%
same,% Visual Weed Control,[2]; 2 applications 7.5/7.5 g ai/ha,87.9%
same,% Visual Weed Control,[2]; [9],95.9%
same,% Visual Weed Control,[2]; 3 applications 5/5/5 g ai/ha,96.7%
same,% Visual Weed Control,[3]; 2 applications 5.6/5.6 g ai/ha,64.4%
same,% Visual Weed Control,[3]; 2 applications 7.5/7.5 g ai/ha,68.3%
same,% Visual Weed Control,[3]; [9],68.8%
same,% Visual Weed Control,[3]; 3 applications 5/5/5 g ai/ha,76.4%
same,% Visual Weed Control,[4]; 2 applications 5.6/5.6 g ai/ha,50%
same,% Visual Weed Control,[4]; 2 applications 7.5/7.5 g ai/ha,100%
same,% Visual Weed Control,[4]; [9],60%
same,% Visual Weed Control,[4]; 3 applications 5/5/5 g ai/ha,100%
same,% Visual Weed Control,[5]; 2 applications 5.6/5.6 g ai/ha,93 (2) %
same,% Visual Weed Control,[5]; 2 applications 7.5/7.5 g ai/ha,93.9 (3) %
same,% Visual Weed Control,[5]; [9],91.4 (2) %
same,% Visual Weed Control,[5]; 3 applications 5/5/5 g ai/ha,97.2 (3) %
same,% Visual Weed Control,[6]; 2 applications 5.6/5.6 g ai/ha,66.5%
same,% Visual Weed Control,[6]; 2 applications 7.5/7.5 g ai/ha,100%
same,% Visual Weed Control,[6]; [9],83.4%
same,% Visual Weed Control,[6]; 3 applications 5/5/5 g ai/ha,83.4%
same,% Visual Weed Control,[7]; 2 applications 5.6/5.6 g ai/ha,92.4%
same,% Visual Weed Control,[7]; 2 applications 7.5/7.5 g ai/ha,96.25%
same,% Visual Weed Control,[7]; [9],90.15%
same,% Visual Weed Control,[7]; 3 applications 5/5/5 g ai/ha,93.25%
same,% Visual Weed Control,[8]; 2 applications 5.6/5.6 g ai/ha,100%
same,% Visual Weed Control,[8]; 2 applications 7.5/7.5 g ai/ha,100%
same,% Visual Weed Control,[8]; [9],100%
same,% Visual Weed Control,[8]; 3 applications 5/5/5 g ai/ha,100%
